# Test: Human HepG2 cell viability assay in 384 well format
# Type: toxicity, cell-based
# Design: dose 125 nL, time 70.5 hour; concentration not given beside the values
# Settings: HepG2 cells, read-out: Inhibition
row,Structure (SMILES),cytotoxicity at 70.5 h [%]
1,Cc1ccc(CCNC(=O)Cn2nc(C)n(Cc3ccccc3)c2=O)o1,19.8
2,CC(CNC(=O)c1cc(Cn2cnc3ccccc32)[nH]n1)N1CCCC1 (centres undefined),-7.82
3,Cc1c[nH]c(CN2CCC3(CCCN(Cc4ccc(F)c(F)c4)C3)C2)n1 (centres undefined),0.269
4,CC(C)S(=O)(=O)N1CCOC(CCc2ccccc2)C1 (centres undefined),-8.39
5,CCCn1ccnc1CN1CCCC(O)(CN2CCCC2)C1 (centres undefined),-2.63
6,CC(C)C1CN(c2cnccn2)CCC(=O)N1Cc1ccc(F)cc1 (centres undefined),-0.619
7,Cc1cccc(=O)n1CCC(=O)N1CC[C@](C)(O)[C@H](C)C1,-9.5
8,Cc1ccc(F)cc1-n1c(COC(C)C)n[nH]c1=O,-5.58
9,CC(C)Cc1cc(C(=O)N2CCC(Oc3cccnc3)CC2)n(C)n1,-8.18
10,CNS(=O)(=O)c1ccc(CN2CCCC2c2ccc(F)cc2)cc1 (centres undefined),-5.9
11,Cc1ccc2[nH]c(CN(C)c3cc(CN)nc(C)n3)nc2c1,0.934
12,CCc1nnc(CN(C)Cc2cccc(C(=O)Nc3ccnn3C)c2)o1,1.53
13,CN1CCC(O)(CNC(=O)c2cc(COc3cccc(F)c3)[nH]n2)CC1,-6.87
14,Cc1nc(N)ncc1C(=O)N1CCCC(CCc2ccccc2F)C1 (centres undefined),17
15,O=C(C1CCCCO1)N1CCc2ncnc(NCCO)c2CC1 (centres undefined),-2.71
16,CCOc1ccc(C(=O)N2CCCC(c3nccn3C)C2)cc1OCC (centres undefined),-5.34
17,CCc1nn(C)c(Cl)c1CN1C[C@@H](NC(=O)N(C)C)[C@H](C(C)C)C1,-5.68
18,COc1ccc(F)c(F)c1CN1CC(=O)N(c2ccccc2C)CC1C (centres undefined),-11.4
19,Cc1cc2[nH]c(CN3CCOC(C(F)(F)F)C3)cc(=O)n2n1 (centres undefined),17.8
20,Cc1cc2nc(C(C)C)cc(NC(C)c3nncn3C3CCCC3)n2n1 (centres undefined),-11.7
21,COc1cccc2c1OCCCN(c1nc(C)nc3c1CCNCC3)C2,-5.98
22,O=C(NCC1=CCCCC1)C(c1cccnc1)N1CCCC1 (centres undefined),31.3
23,CCn1c(C2CCN(C(=O)c3cc(C4CC4)on3)CC2)nn(C)c1=O,-6.56
24,CCc1nc2c(c(NC3CC3)n1)CCN(C(=O)N1CCN(C)CC1)CC2,-19.1
25,Cc1cccc2c(CCNC(=O)[C@H](N)c3ccccc3)c[nH]c12,-17.6
26,Cc1cc(-n2nc(C3CC3)nc2-c2csnn2)ccn1,-10.1
27,CC(C)(O)CCc1ccc(C(=O)NCCC2CCCOC2)cc1 (centres undefined),-0.926

row,Structure (SMILES),cytotoxicity at 70.5 h [%]
1,CN(Cc1n[nH]c2c1CCCCC2)C(=O)c1cc(-c2cccn2C)n[nH]1,-5.14
2,NC(=O)NCCC(=O)N1CCC(c2cc(Cc3ccccc3)n[nH]2)CC1,-6.87
3,CC1=C(C(=O)NCCc2n[nH]c3c2CCCC3)C(C)NC(=O)N1 (centres undefined),14.6
4,O=C(NC1CCCN(CCCc2ccccc2)C1)C1=CCCCC1 (centres undefined),-0.678
5,CN(C)CCC1CCCCN1Cc1cnc(-c2ccccn2)nc1 (centres undefined),-3.63
6,Cc1ncsc1C(=O)N1CCn2nc(CN3CCSCC3)cc2C1,-1.17
7,c1ccc(CCN2CCN(c3ncnc4[nH]ccc34)CC2)cc1,-3.03
8,CC(C)CCN1CC2(CCCN(C(=O)CNC(=O)N(C)C)C2)CCC1=O (centres undefined),-10.1
9,CC(C)=CCN1CCN(Cc2cc(C)n[nH]2)CC1CCO (centres undefined),4.87
10,CCC(=O)N1Cc2nnc(C3CCOCC3)n2C(Cc2c[nH]cn2)C1 (centres undefined),-7.01
11,c1ccc2sc(N3CCN(c4ncnc5c4CCC5)CC3)nc2c1,13.8
12,COCCN(C)C(=O)c1ccccc1-n1cccn1,5.05
13,COC(=O)N1CCCCC1C(=O)N1CCCN(c2ccnc(C)c2)CC1 (centres undefined),-7.79
14,COc1cc(-c2nccn2C(C)CCn2cccn2)cc2c1OCO2 (centres undefined),1.97
15,Cc1cc(NCCSc2nccn2C)n2nc(C)c(C)c2n1,-4.55
16,O=c1cc(CN2CCCCC2c2cccc(F)c2)[nH]c2ncnn12 (centres undefined),-10.8
17,O=c1c2cccc(Cl)c2ncn1C1CCNC1 (centres undefined),-10.4
18,CSCCC(O)C(=O)N1CCCN(Cc2ccc(F)cc2)CC1 (centres undefined),8.69
19,Cc1cccc2[nH]c(C3CCCN(Cc4ccccc4C(=O)O)C3)nc12 (centres undefined),8.18
20,c1ccc(CN(Cc2cccc3cnccc23)CC2CCCO2)nc1 (centres undefined),-7.22
21,C[C@@H]1CN(CCC(=O)N(C)Cc2ccccc2)C[C@@]1(O)C1CCC1,-7.64
22,CN(Cc1cccnc1)c1nccc(N2CCN[C@H]3CS(=O)(=O)C[C@H]32)n1,-3.96
23,COc1cccc(N2CCN(Cc3ccc4ccn(C)c4c3)CC2=O)c1,-5.61
24,CN(C)C(C(=O)N1CC(c2ccccn2)C1)c1ccc2c(c1)OCO2 (centres undefined),-3.16
25,COc1ccccc1OCc1cc(C(=O)N2CCOCC2CO)n[nH]1 (centres undefined),-5.23
26,COc1cc(Oc2cnc3ccccc3n2)ccc1CN1CCCC1,-3.39
27,CC(=O)N1C[C@H]2CNC[C@@]2(C(=O)NCCCOc2cccnc2)C1,20

row,Structure (SMILES),cytotoxicity at 70.5 h [%]
1,C[C@@H]1CN(S(=O)(=O)N2CCCC2)CC[C@@]1(O)C1CCOCC1,-14
2,N#Cc1c(N)nc2c(c1-c1c[nH]nc1C1CCCCC1)CNCC2,18.5
3,O=c1cc(N2CCOCC2)cnn1CCc1ccc(F)cc1,-1.15
4,CCC(=O)c1ccc(OCC(=O)N(C)C(C)c2ccon2)cc1 (centres undefined),-13.2
5,O=C1NCCCC[C@@H]1Nc1ccc(-c2nc(C3CC3)no2)cn1,-2.61
6,C=Cc1ccc(C(=O)NC2CCCc3nc(N(C)C)ncc32)cc1 (centres undefined),16.1
7,Cc1cccc(-c2nc3cc(S(=O)(=O)N4CCCC4)ccc3n2C)n1,-10.3
8,Cn1nc(C2CC2)c2c1NC(=O)CC2c1ccc(CN2CCCCC2)s1 (centres undefined),-3.05
9,COc1ccc(-c2ccnc(N)c2)c(C)c1,-15.9
10,CS(=O)(=O)N1CCc2[nH]cnc2C12CCN(C(=O)c1cccnc1)CC2,-0.221
11,O=S1(=O)C[C@@H]2[C@H](C1)N(Cc1ncc[nH]1)CCN2Cc1cccnc1,-3.77
12,CC(C)CCn1cc(C(C(=O)O)N2CCCN(C3CCCC3)CC2)cn1 (centres undefined),-9.63
13,Cc1ccsc1CN1CCC(n2cc(C(O)c3ccccc3)nn2)CC1 (centres undefined),-8.81
14,CCNc1ncc(C(=O)NCc2ccc(F)c(C(F)(F)F)c2)cn1,20.6
15,CCc1nc(NCCc2c(C)nn(CC)c2C)c2cnn(C)c2n1,-9.28
16,Cc1nnc(SCC(=O)NCC(c2ccccc2Cl)N(C)C)s1 (centres undefined),-7.07
17,Cn1cc(CN2CCC(CCC(=O)NCc3ccc(F)cc3)CC2)cn1,4.72
18,Cc1ccc(CN2CCN(c3ncccc3C(N)=O)CC2CCO)cc1 (centres undefined),-2.3
19,CCn1cc(CN2CCC(N3CCC(O)CC3)CC2)cc1C#N,-5.22
20,Fc1ccc(Cn2ncc3c2CN(c2noc(C4CC4)n2)C3)cc1,-3.43
21,O=C(O)C1(Oc2ccccc2)CCN(c2ccncc2)CC1,-2.23
22,CN(C)[C@H]1CCCCN(C(=O)c2cccc(-c3cccc(F)c3)c2)C1,-4.14
23,CC(=O)Nc1ccc(CNC(=O)CNCc2nnc(C)o2)cc1,2.3
24,CCNC(=O)[C@@H]1C[C@H](N)CN1C1CCN(c2ccccc2OC)CC1,-3.8
25,CC(=O)c1ccc(C(=O)N2CCC(c3cc(O)nc(C)n3)CC2)s1,-10.9

# Source: ChEMBL document CHEMBL3507680, “University of Dundee, Gates Library screen for HepG2 cell viability”
